Values joined by “and” are separate entries in the source; they are usually repeats but may differ in a detail not shown here. Identical values can stand only once.
Tests used:
[1] = administered in large quantities; cited from earlier work
[2] = In vitro resorption of bovine vertebral cortical bone sections (weight change after incubation)
Experimental: Fresh bovine vertebral bone was cut into 1-3 g sections with a diamond saw blade. Non-cortical medullary bone was trimmed from the cortical bone and the sections were dried while incubated for 12 hours at 37° C. and then weighed. […] Bone sections were then dried and reweighed.

[3] = citric acid 0.001M, pH 3.25, 37° C., 96 hours
[4] = citric acid 0.01M, pH 2.62, 37° C., 96 hours
[5] = citric acid 0.1M, pH 2.08, 37° C., 96 hours
[6] = citric acid 1M, pH 1.57, 37° C., 96 hours
[7] = sodium citrate 0.001M, pH 7.65, 37° C., 96 hours
[8] = sodium citrate 0.01M, pH 7.78, 37° C., 96 hours
[9] = sodium citrate 0.1M, pH 9.27, 37° C., 96 hours
[10] = sodium citrate 1M, pH 8.67, 37° C., 96 hours

For `O=C(O)CC(O)(CC(=O)O)C(=O)O` [Citrate], the toxicity [1] is given as “non-toxic”.
With `O=C(O)CC(O)(CC(=O)O)C(=O)O` [Citric acid, citric acid] the “% change” value [2, 3] was “+0.00349%”, the Wt. change [2, 3] was “+0.00432 g” and the “% change” value [2, 4] was −0.04435%. The Wt. change [2, 4] was -0.06128 g, the “% change” value [2, 5] was −0.1198% and the Wt. change [2, 5] was -0.1916 g. The “% change” value [2, 6] was −0.288%, the Wt. change [2, 6] was -0.4863 g and the “dependence of bone resorption” value ([2]; citric acid, 37° C., 96 hours) was “pH dependent”.
In the case of `O=C([O-])CC(O)(CC(=O)[O-])C(=O)[O-].[Na+].[Na+].[Na+]` [Sodium citrate, sodium citrate], the “% change” value [2, 7] is reported as −0.00037%, the Wt. change [2, 7] is reported as -0.00077 g and the “% change” value [2, 8] is reported as −0.01319%. For the same compound, the Wt. change [2, 8] was -0.03261 g, the “% change” value ([2]; sodium citrate 0.1M, pH 9.27, 37° C.) was −0.03159% and −0.00551% and the “% change” value [2, 9] was −0.01116%. For the same compound, the Wt. change [2, 9] was -0.01593 g, the “% change” value ([2]; sodium citrate 0.125M, pH 9.20, 37° C.) was −0.00109% and −0.03799% and the “% change” value ([2]; sodium citrate 0.15M, pH 9.16, 37° C.) was −0.04659% and −0.05754%. The “% change” value ([2]; sodium citrate 0.25M, pH 9.12, 37° C.) was −0.00373% and −0.01174%, the “% change” value ([2]; sodium citrate 0.55M, pH 8.68, 37° C.) was −0.00196% and −0.01386% and the “% change” value [2, 10] was −0.01873%. The Wt. change [2, 10] was -0.04881 g and the “molarity of greatest resorption of bone” value ([2]; sodium citrate, 37° C., 168 hours) was 0.15 M.

Reference: patent US9616040B2 (priority 2016, dated 2017)
